The experiment has as its system morphine inhibition of prostaglandin E2 (PGE2) induced diarrhea. The experiment in a line: Antagonism of morphine-inhibited diarrhea in mice. The format is in vivo, mice (Swiss-Webster). To be noted: morphine 1 mg/kg s.c., PGE2 320 μg/kg at 30 min, watery stools observed, result shown only in figure. The protocol:
Albino mice of either sex (Swiss-Webster) weighing 20-30 g were used to determine the ability of an opioid antagonist to antagonize morphine inhibition of prostaglandin E2 (PGE2) induced diarrhea according to the method of Dajani et al. (1979). Briefly, mice are treated at time 0 with morphine, 1 mg/kg s.c. and an opioid antagonist, 60, 180, 240, 300, 360, 480, or 720 mg/kg orally; or 3, 10, 30, 100 or 140 mg/kg i.p; or saline, 0.1 ml/10 gm body weight orally or i.p. Mice are then treated at 30 min with PGE2, 320 μg/kg which consistently produced watery stools in the absence of morphine. […] Eleven to 24 mice were used per dose of an opioid antagonist for the oral and 6 are used for the i.p. routes. Data was analyzed using Fisher's exact probability test (Siegel, 1956). These studies were repeated using naltrexone, 0.005, 0.01, 0.05, 0.1, and 5 mg/kg i.p. and 0.5, 1, 2, and 4 mg/kg orally.

Here are results for 2 molecules from patent publication US8354534B2, “Selective opioid compounds” (Alkermes, Inc., priority 2008, dated 2013).

Each structure is given as a SMILES string.

With `NC(=O)c1ccc2c(c1O)[C@]13CCN(CC4CC4)[C@H](C2)[C@]1(O)CC[C@@H](NC(=O)[C@@H](N)CC(=O)O)C3` [Compound 12], the “Inhibition of morphine blockade of PGE2-induced diarrhea” value is “Inhibition of morphine blockade of PGE2-induced diarrhea”.

In the case of `NC(=O)c1ccc2c(c1O)[C@]13CCN(CC4CC4)[C@H](C2)[C@]1(O)CC[C@@H](NC(CC(=O)O)C(=O)O)C3` (some centres unmarked) [Compound 13], the “Inhibition of morphine blockade of PGE2-induced diarrhea” value is “Inhibition of morphine blockade of PGE2-induced diarrhea”.
